Like-named read-outs stand apart in the source and are kept apart here.
Tests used:
Assay type in all cases: cell-based
[1] = tested on: KRas-mediated Phosphorylation of ERK in H358 cells; experiment: Cisbio HTRF pERK assay, H358 cells; conditions: H358 cells, 3 hrs compound, read-out: Inhibition (HTRF IC50 nM) of KRas-mediated Phosphorylation of ERK, H358
[2] = tested on: KRas-mediated Phosphorylation of ERK in H460 cells; experiment: Cisbio HTRF pERK assay, H460 cells; conditions: H460 cells, 3 hrs compound, read-out: Inhibition (HTRF IC50 nM) of KRas-mediated Phosphorylation of ERK, H460
[3] = tested on: KRas-mediated Phosphorylation of ERK in HCT116 cells; experiment: Cisbio HTRF pERK assay, HCT116 cells; conditions: HCT116 cells, 3 hrs compound, read-out: Inhibition (HTRF IC50 nM) of KRas-mediated Phosphorylation of ERK, HCT116
[4] = tested on: KRas-mediated Phosphorylation of ERK in AsPC-1 cells; experiment: Cisbio HTRF pERK assay, AsPC-1 cells; conditions: 3 hrs compound, read-out: Inhibition (HTRF IC50 nM) of KRas-mediated Phosphorylation of ERK, AsPC-1
[5] = tested on: KRas-mediated Phosphorylation of ERK in H727 cells; experiment: Cisbio HTRF pERK assay, H727 cells; conditions: 3 hrs compound, read-out: Inhibition (HTRF IC50 nM) of KRas-mediated Phosphorylation of ERK, H727
[6] = tested on: KRas-mediated Phosphorylation of ERK in A549 cells; experiment: Cisbio HTRF pERK assay, A549 cells; conditions: A549 cells, 3 hrs compound, read-out: Inhibition (HTRF IC50 nM) of KRas-mediated Phosphorylation of ERK, A549
[7] = tested on: KRas-mediated Phosphorylation of ERK in PSN1 cells; experiment: Cisbio HTRF pERK assay, PSN1 cells; conditions: 3 hour compound, read-out: Inhibition (HTRF IC50 nM) of KRas-mediated Phosphorylation of ERK, PSN1
Procedure: Inhibition of KRas Phosphorylation of ERK (HTRF) by Exemplary Compounds of Formula (I) • Cisbio HTRF Advanced pERK Assay Catalog #64AERPEH • Cell: MKN1, PSN1 • Procedure: • Day 1: Seed 6,000 cells/well −25 μl/well in 384-well white solid bottom plate; RPM1_10% FBS.

Row | IC50 ([1]; Homo sapiens, NCI-H358, 3 h) | IC50 ([2]; Homo sapiens, NCI-H460, 3 h) | IC50 ([3]; Homo sapiens, HCT-116, 3 h) | IC50 ([4]; Homo sapiens, ASPC1, 3 h) | IC50 ([5]; Homo sapiens, NCI-H727, 3 h) | IC50 ([6]; Homo sapiens, A549, 3 h) | IC50 ([7]; Homo sapiens, PSN1, 3 h) | Structure (SMILES) | IC50 [1] | IC50 [2] | IC50 [3] | IC50 [4] | IC50 [5] | IC50 [6] | IC50 [7]
1 | 71 nM | 690 nM | 985 nM | 1740 nM | 554 nM | 574 nM | 7120 nM | N#Cc1c(N)sc2c(F)ccc(-c3c(Cl)cc4c(NCCO)nc(OC[C@@]56CCCN5C[C@H](F)C6)nc4c3F)c12 [Example 205, 2-amino-4-(6-chloro-8-fluoro-2-(((2R,7aS)-2-fluorotetrahydro-1H-pyrrolizin-7a(5H)-yl)methoxy)-4-((2-hydroxyethyl)amino)quinazolin-7-yl)-7-fluorobenzo[b]thiophene-3-carbonitrile] |  |  |  |  |  |  | 
2 | 232 nM | 462 nM | 889 nM | 4200 nM | 4090 nM | 1180 nM | 3860 nM | N#Cc1c(N)sc2c(F)ccc(-c3c(Cl)cc4c(NCc5cn[nH]c5)nc(OC[C@@]56CCCN5C[C@H](F)C6)nc4c3F)c12 [Example 199, 4-(4-(((1H-pyrazol-4-yl)methyl)amino)-6-chloro-8-fluoro-2-(((2R,7aS)-2-fluorotetrahydro-1H-pyrrolizin-7a(5H)-yl)methoxy)quinazolin-7-yl)-2-amino-7-fluorobenzo[b]thiophene-3-carbonitrile] |  |  |  |  |  |  | 
3 | 330 nM | 347 nM | 596 nM | 627 nM | 870 nM | 525 nM | 5570 nM | N#Cc1c(N)sc2c(F)ccc(-c3c(Cl)cc4c(N5C=C(CCO)CCCC5)nc(OC[C@@]56CCCN5C[C@H](F)C6)nc4c3F)c12 [Example 190, 2-amino-4-(6-chloro-8-fluoro-2-(((2R,7aS)-2-fluorotetrahydro-1H-pyrrolizin-7a(5H)-yl)methoxy)-4-(6-(2-hydroxyethyl)-2,3,4,5-tetrahydro-1H-azepin-1-yl)quinazolin-7-yl)-7-fluorobenzo[b]thiophene-3-carbonitrile] |  |  |  |  |  |  | 
4 | 60 nM | 173 nM | 367 nM | 246 nM | 55 nM | 244 nM | 4890 nM | N#Cc1c(N)sc2c(F)ccc(-c3c(Cl)cc4c(N5CCC5)nc(OC[C@@]56CCCN5C[C@H](F)C6)nc4c3F)c12 [Example 206, 2-amino-4-(4-(azetidin-1-yl)-6-chloro-8-fluoro-2-(((2R,7aS)-2-fluorotetrahydro-1H-pyrrolizin-7a(5H)-yl)methoxy)quinazolin-7-yl)-7-fluorobenzo[b]thiophene-3-carbonitrile] |  |  |  |  |  |  | 

Second part, the compound before the results:

Row | Structure (SMILES) | IC50 ([1]; Homo sapiens, NCI-H358, 3 h) | IC50 ([2]; Homo sapiens, NCI-H460, 3 h) | IC50 ([3]; Homo sapiens, HCT-116, 3 h) | IC50 ([4]; Homo sapiens, ASPC1, 3 h) | IC50 ([5]; Homo sapiens, NCI-H727, 3 h) | IC50 ([6]; Homo sapiens, A549, 3 h) | IC50 ([7]; Homo sapiens, PSN1, 3 h) | IC50 [1] | IC50 [2] | IC50 [3] | IC50 [4] | IC50 [5] | IC50 [6] | IC50 [7]
5 | N#Cc1c(N)sc2c(F)ccc(-c3c(Cl)cc4c(N5CCCn6nc(N)c(Cl)c6C5)nc(OC[C@@]56CCCN5C[C@H](F)C6)nc4c3F)c12 (atropisomer, axis not shown; (aS)) [Example 188, 2-amino-4-((R)-4-(2-amino-3-chloro-7,8-dihydro-4H-pyrazolo[1,5-a][1,4]diazepin-5(6H)-yl)-6-chloro-8-fluoro-2-(((2R,7aS)-2-fluorotetrahydro-1H-pyrrolizin-7a(5H)-yl)methoxy)quinazolin-7-yl)-7-fluorobenzo[b]thiophene-3-carbonitrile] |  |  |  |  |  |  |  | 2 nM | 13 nM | 18 nM | 3 nM | 10 nM | 14 nM | 544 nM
6 | CN(C)C(=O)n1cc2c(n1)CCCN(c1nc(OC[C@@]34CCCN3C[C@H](F)C4)nc3c(F)c(-c4ccc(F)c5sc(N)c(C#N)c45)c(Cl)cc13)C2 (atropisomer, axis not shown; (aS)) [Example 186, 5-((S)-7-(2-amino-3-cyano-7-fluorobenzo[b]thiophen-4-yl)-6-chloro-8-fluoro-2-(((2R,7aS)-2-fluorotetrahydro-1H-pyrrolizin-7a(5H)-yl)methoxy)quinazolin-4-yl)-N,N-dimethyl-5,6,7,8-tetrahydropyrazolo[4,3-c]azepine-2(4H)-carboxamide] |  |  |  |  |  |  |  | 98 nM | 341 nM | 670 nM | 162 nM | 202 nM | 382 nM | > 10000 nM
7 | C=C1CN2CCC[C@]2(COc2nc(N3CC4CCC(C3)N4)c3cc(Cl)c(-c4ccc(F)c5sc(N)c(C#N)c45)c(F)c3n2)C1 [Example 182, (R)-4-(4-((1R,5S)-3,8-diazabicyclo[3.2.1]octan-3-yl)-6-chloro-8-fluoro-2-(((R)-2-methylenetetrahydro-1H-pyrrolizin-7a(5H)-yl)methoxy)quinazolin-7-yl)-2-amino-7-fluorobenzo[b]thiophene-3-carbonitrile] |  |  |  |  |  |  |  | 136 nM | 207 nM | 114 nM | 4 nM | 1390 nM | 377 nM | 1820 nM
8 | C=C1CN2CCC[C@]2(COc2nc(N3CC4CCC(C3)N4)c3cc(Cl)c(-c4ccc(F)c5sc(N)c(C#N)c45)c(F)c3n2)C1 [Example 181, (S)-4-(4-((1R,5S)-3,8-diazabicyclo[3.2.1]octan-3-yl)-6-chloro-8-fluoro-2-(((R)-2-methylenetetrahydro-1H-pyrrolizin-7a(5H)-yl)methoxy)quinazolin-7-yl)-2-amino-7-fluorobenzo[b]thiophene-3-carbonitrile] |  |  |  |  |  |  |  | 4560 nM | 9660 nM | 8030 nM | 950 nM | 8500 nM | > 10000 nM | 5260 nM
9 | N#Cc1c(N)sc2c(F)ccc(-c3c(Cl)cc4c(N5CCCn6nc(N)c(Cl)c6C5)nc(OC[C@@]56CCCN5C[C@H](F)C6)nc4c3F)c12 (atropisomer, axis not shown; (aS)) [Example 189, 2-amino-4-((S)-4-(2-amino-3-chloro-7,8-dihydro-4H-pyrazolo[1,5-a][1,4]diazepin-5(6H)-yl)-6-chloro-8-fluoro-2-(((2R,7aS)-2-fluorotetrahydro-1H-pyrrolizin-7a(5H)-yl)methoxy)quinazolin-7-yl)-7-fluorobenzo[b]thiophene-3-carbonitrile] |  |  |  |  |  |  |  | 327 nM | 1530 nM | 2470 nM | 472 nM | 882 nM | 3350 nM | 7470 nM
10 | N#Cc1c(N)sc2c(F)ccc(-c3c(Cl)cc4c(N5CCCCC(=O)C5)nc(OC[C@@]56CCCN5C[C@H](F)C6)nc4c3F)c12 [Example 191, 2-amino-4-(6-chloro-8-fluoro-2-(((2R,7aS)-2-fluorotetrahydro-1H-pyrrolizin-7a(5H)-yl)methoxy)-4-(3-oxoazepan-1-yl)quinazolin-7-yl)-7-fluorobenzo[b]thiophene-3-carbonitrile] | 2 nM | 10 nM | 11 nM | 8 nM | 12 nM | 11 nM | 798 nM |  |  |  |  |  |  | 
11 | N#Cc1c(N)sc2c(F)ccc(-c3c(Cl)cc4c(N5CCCn6nc(N)cc6C5)nc(OC[C@@]56CCCN5C[C@H](F)C6)nc4c3F)c12 [Example 187, 2-amino-4-(4-(2-amino-7,8-dihydro-4H-pyrazolo[1,5-a][1,4]diazepin-5(6H)-yl)-6-chloro-8-fluoro-2-(((2R,7aS)-2-fluorotetrahydro-1H-pyrrolizin-7a(5H)-yl)methoxy)quinazolin-7-yl)-7-fluorobenzo[b]thiophene-3-carbonitrile] | 12 nM | 78 nM | 176 nM | 41 nM | 148 nM | 106 nM | 1060 nM |  |  |  |  |  |  | 
12 | C=C1CN2CCC[C@@]2(COc2nc(N3CC4CCC(C3)N4)c3cc(Cl)c(-c4ccc(F)c5sc(N)c(C#N)c45)c(F)c3n2)C1 [Example 183, (S)-4-(4-((1R,5S)-3,8-diazabicyclo[3.2.1]octan-3-yl)-6-chloro-8-fluoro-2-(((S)-2-methylenetetrahydro-1H-pyrrolizin-7a(5H)-yl)methoxy)quinazolin-7-yl)-2-amino-7-fluorobenzo[b]thiophene-3-carbonitrile] |  |  |  |  |  |  |  | 6740 nM | 8090 nM | 4800 nM | 254 nM | > 10000 nM | > 10000 nM | 6150 nM

— US20240025907A1, “QUINAZOLINE PAN-KRas INHIBITORS” (Mirati Therapeutics, Inc., priority 2022, published 2024)
